One data set has as its system P. falciparum D10. The data set can be described thus: Inhibition of in vitro P. falciparum culture, [3H]-hypoxanthine uptake, D10. Format: cell-based. To be noted: Plasmodium falciparum, D10, Erythrocyte; [3H]-hypoxanthine uptake by parasite infected erythrocytes; read-out: D10 IC50. How it is done:
(§1) P. falciparum strains D10, 3D7, HB3, and Dd2 were obtained from the Malaria Research and Reference Reagent Resource Center (Manassas, Va.). The parasite strains were maintained in vitro by method of Trager and Jensen. The inhibition of P. falciparum growth in the presence of drug was assessed by the relative reduction of [^3H]-hypoxanthine uptake as previously described. Inhibition data were fitted to Equation 1 using non-linear regression analysis except that the relative velocity of parasite growth was substituted for the rate of product formation.

Data set [1] can be described thus: Renal Proximal Tubule Epithelial Cell Toxicity Screen. Format: cell-based. As to the method:
The Renal Proximal Tubule Epithelial Cell Toxicity Screen is designed to determine whether compound mixtures, breakouts or single compounds are toxic to normal renal epithelial cells. […] Basically, the screen consists of plating renal epithelial cells, exposing them to the desired compound(s) for 4 days and measuring cell viability using the Alamar Blue reagent.
Harvested Kidney Epithelial cells were diluted in REGM to 1.5×10^4 cells/mL. […] NOTE: One plate, the T=0 plate required that 20-30 wells be seeded, and all the other plates had 96 wells seeded. Plates were incubated in 37° C./5% CO2 incubator for 24 hours.
Alamar Blue solution (25 μL/well) was added to the T=0 plate and mixed. The plate was incubated in 37° C./5% CO2 incubator for 4 hours, mixed and then the fluorescence was measured. 10% Tween 20 stock (10 μL) was added into rows A-D in column 1 (positive control). DMSO (0.5 μL) was added into column 2 (negative control). Compounds were placed into designated wells for desired testing as follows:
Plates were mixed on the shaker, and then incubated in 37° C./5% CO2 incubator for 96 hours. Day 6:
Alamar Blue solution (25 μL/well) was added to the plates containing the compounds and mixed. Plates were incubated in 37° C./5% CO2 incubator for 4 hours, mixed and the fluorescence was measured.

In another data set the target is hsDHODH (Homo sapiens (Human), UniProt Q02127). Description: DCIP assay, hsDHODH. Format: biochemical. The following applies: DCIP assay; 200 μM L-DHO, 18 μM CoQD, 100 μM DCIP, 20 nM enzyme; read-out: hsDHODH IC50.
In another data set the test system is P. falciparum HB3. Description: Inhibition of in vitro P. falciparum culture, [3H]-hypoxanthine uptake, HB3. Format: cell-based. The following applies: Plasmodium falciparum, HB3, Erythrocyte; [3H]-hypoxanthine uptake by parasite infected erythrocytes; read-out: HB3 IC50. How it is done:
as §1

In data set [2] the target is T1, pfDHODH (Plasmodium falciparum (isolate 3D7), UniProt Q08210). Description: DHODH chromogen reduction (DCIP) assay, pfDHODH. The following applies: 200 μM L-DHO. Format: biochemical, P. falciparum.
The test system of a further data set is P. falciparum 3D7. Description: Inhibition of in vitro P. falciparum culture, [3H]-hypoxanthine uptake, 3D7. Format: cell-based. The following applies: Plasmodium falciparum, 3D7, Erythrocyte; [3H]-hypoxanthine uptake by parasite infected erythrocytes; read-out: 3D7 IC50. An outline of the steps:
(§2)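 Parasite growth inhibition measured as relative reduction of [3H]-hypoxanthine uptake in in vitro cultures. Values from non-linear regression fit, using relative growth velocity in place of product-formation rate.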

For data set [3], the target named is T1, pfDHODH. The data set can be described thus: pfDHODH activity with FeCy as electron acceptor. The following applies: read-out: % Inhibition of Product Formation Rate with 50 μM Inhibitor, FeCy.
Description: Inhibitors of DHODH, as classified by the chromogen reduction assay, were also evaluated for activity using FeCy as an electron acceptor. A final concentration of 5-50 nM DHODH, 200 μM L-DHO and 100 μM FeCy in Buffer C was used in this assay. Both the reduction of FeCy and the formation of orotate was monitored at 420 nm (ε420=1 mM^−1 cm^−1) and 290 nm (ε280=2 mM^−1 cm^−1), respectively, noting that two molecules of FeCy are reduced for one molecule of L-DHO. As with the previous assays, the reaction was performed at 25° C. and initiated with the addition of enzyme.
The target in the next data set is pbDHODH (Plasmodium berghei, UniProt A0A509AEH5). The data set can be described thus: DCIP assay, pbDHODH. To be noted: 200 μM L-DHO, 18 μM CoQD, 100 μM DCIP, 20 nM enzyme. Format: biochemical, P. berghei. The text has this:
(§3) Type 2 DHODH activity was monitored with either the direct assay measuring the formation of orotate or via a chromogen reduction assay using DCIP. Although the extinction coefficient and absorption wavelength are preferable for the chromogen reduction assay, the inorganic electron acceptor DCIP can be utilized by DHODH as the final electron acceptor in lieu of CoQn when the endogenous substrate is at a low concentration. As such, the direct assay was used to measure the binding affinity of pfDHODH to CoQD and L-DHO. The enzymatic reaction was performed by varying the L-DHO concentration (1-400 μM) or CoQD concentration (1-200 μM) while keeping the other substrate constant and in excess. The formation of orotate was measured continuously at 296 nm (ε296=4.3 mM^−1 cm^−1). Inhibition of DHODH by small molecules was evaluated using the chromogen based assay with a final substrate concentration of 200 μM L-DHO, 18 μM CoQD, and 100 μM DCIP, unless otherwise noted. The reduction of DCIP was monitored at 600 nm (ε600=18.8 mM^−1 cm^−1).
(§4) Substrate specificity and enzyme inhibition data was analyzed with GraphPad Prism Version 4 for Windows (GraphPad Software). Kinetic constants were calculated by non-linear regression fitting of the data to the Michaelis-Menten equation [36]. IC50 values were determined by non-linear regression fitting of the data to Equation 1: […]

The target of a further data set is scDHODH (Saccharomyces cerevisiae (strain ATCC 204508 / S288c) (Baker's yeast), UniProt P28272). The data set can be described thus: DCIP assay with fumarate, scDHODH. Format: biochemical. The following applies: 115 μM fumarate in lieu of CoQD.
A further data set addresses pvDHODH (Plasmodium vivax, UniProt A5K1N1). The data set can be described thus: DCIP assay, pvDHODH. Format: biochemical, P. vivax. The following applies: 200 μM L-DHO, 18 μM CoQD, 100 μM DCIP, 20 nM enzyme.
Text: as §3, §4

Another data set deals with P. falciparum Dd2. Description: Inhibition of in vitro P. falciparum culture, [3H]-hypoxanthine uptake, Dd2. Format: cell-based. To be noted: Plasmodium falciparum, DD2, Erythrocyte, [3H]-hypoxanthine uptake by parasite infected erythrocytes; read-out: Dd2 IC50. An outline of the steps: as §2
For data set [4], the system named is P. falciparum D10-scDHODH. Description: Inhibition of transgenic D10-scDHODH parasites, [3H]-hypoxanthine uptake. Format: cell-based. How it is done: as §1
Transgenic parasites expressing scDHODH were generated as described by Painter et al. except that full length scDHODH was cloned directly into the pGem3Z vector without a GFP tag. The resultant plasmid was transfected into ring stages of P. falciparum D10 by electroporation and maintained in culture using standard methods under the selection of WR99210.

Data set [5] can be described thus: Normal Human Dermal Fibroblast Toxicity Screen. Format: cell-based. The following applies: human, normal human dermal fibroblasts; four days exposure, Alamar Blue; read-out: Dermal Fibroblast LC50. As to the method:
The Normal Human Dermal Fibroblast Toxicity Screen Protocol is designed to determine whether compound mixtures, breakouts or single compounds are toxic to normal human dermal fibroblasts. The screen involves plating the dermal fibroblasts and then exposing them to the compounds for four days, then cell viability is measured using Alamar Blue reagent.
Harvested Dermal Fibroblast cells were diluted in Growth Media to 0.25 to 0.3×10^5 cells/mL. […] NOTE: One plate, the T=0 plate required that 20-30 wells be seeded and all the other plates had 96 wells seeded. Plates were incubated in 37° C./5% CO2 incubator for 24 hours.
Alamar Blue solution (25 μL/well) was added to the T=0 plate and the plate was agitated. The plate in 37° C./5% CO2 incubator was incubated for 3 hours, agitated the and the fluorescence was measured. 10% Tween 20 stock (10 μL) was added into rows A-D in column 1 (positive control). DMSO (0.5 μL) was added into column 2 (negative control). Compounds were placed into designated wells for desired testing as follows:
Plates were mixed on the shaker, then incubated in 37° C./5% CO2 incubator for 96 hours.
Alamar Blue solution (25 μL/well) was added to the plates containing the compounds, and the plates were agitated. The plates were incubated in 37° C./5% CO2 incubator for 3 hours, agitated and then the fluorescence was measured.

Bounds are passed on as bounds.

T1 sequence (Q08210 159-565 limits assumed): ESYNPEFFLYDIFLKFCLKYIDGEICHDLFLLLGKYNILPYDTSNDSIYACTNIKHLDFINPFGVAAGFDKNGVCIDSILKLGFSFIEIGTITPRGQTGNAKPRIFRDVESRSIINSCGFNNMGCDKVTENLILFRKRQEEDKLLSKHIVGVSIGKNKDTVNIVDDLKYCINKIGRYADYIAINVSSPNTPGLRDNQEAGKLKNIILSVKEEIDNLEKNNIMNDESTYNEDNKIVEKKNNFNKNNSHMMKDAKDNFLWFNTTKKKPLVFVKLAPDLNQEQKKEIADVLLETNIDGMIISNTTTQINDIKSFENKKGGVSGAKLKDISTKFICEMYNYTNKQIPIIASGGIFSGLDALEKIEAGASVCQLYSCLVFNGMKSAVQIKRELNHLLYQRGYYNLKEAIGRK
Sequence of scDHODH (P28272 whole entry): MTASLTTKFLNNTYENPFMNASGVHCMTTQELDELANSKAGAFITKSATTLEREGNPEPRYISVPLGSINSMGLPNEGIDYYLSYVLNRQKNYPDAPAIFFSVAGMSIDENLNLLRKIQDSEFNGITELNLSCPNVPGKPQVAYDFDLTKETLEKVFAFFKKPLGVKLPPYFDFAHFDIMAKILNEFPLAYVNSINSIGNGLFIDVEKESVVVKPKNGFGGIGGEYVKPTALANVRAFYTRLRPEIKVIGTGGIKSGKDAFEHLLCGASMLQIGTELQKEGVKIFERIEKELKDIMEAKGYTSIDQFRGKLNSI
Sequence of pvDHODH (A5K1N1 1-572): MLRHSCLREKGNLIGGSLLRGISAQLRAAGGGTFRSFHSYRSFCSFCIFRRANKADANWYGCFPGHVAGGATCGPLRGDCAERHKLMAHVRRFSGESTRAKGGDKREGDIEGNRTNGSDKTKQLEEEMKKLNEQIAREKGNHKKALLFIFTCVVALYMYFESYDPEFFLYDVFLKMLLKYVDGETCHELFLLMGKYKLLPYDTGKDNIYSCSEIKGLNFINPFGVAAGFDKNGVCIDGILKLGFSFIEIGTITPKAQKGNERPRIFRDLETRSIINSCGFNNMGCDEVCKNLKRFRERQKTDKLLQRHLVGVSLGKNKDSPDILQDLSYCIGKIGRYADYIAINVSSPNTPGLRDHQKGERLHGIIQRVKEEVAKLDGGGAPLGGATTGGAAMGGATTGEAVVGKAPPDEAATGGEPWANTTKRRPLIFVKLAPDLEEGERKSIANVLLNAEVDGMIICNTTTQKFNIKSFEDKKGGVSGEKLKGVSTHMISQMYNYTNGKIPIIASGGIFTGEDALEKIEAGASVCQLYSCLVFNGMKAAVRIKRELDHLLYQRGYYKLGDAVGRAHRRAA
Sequence of hsDHODH (Q02127 29-395 limits assumed): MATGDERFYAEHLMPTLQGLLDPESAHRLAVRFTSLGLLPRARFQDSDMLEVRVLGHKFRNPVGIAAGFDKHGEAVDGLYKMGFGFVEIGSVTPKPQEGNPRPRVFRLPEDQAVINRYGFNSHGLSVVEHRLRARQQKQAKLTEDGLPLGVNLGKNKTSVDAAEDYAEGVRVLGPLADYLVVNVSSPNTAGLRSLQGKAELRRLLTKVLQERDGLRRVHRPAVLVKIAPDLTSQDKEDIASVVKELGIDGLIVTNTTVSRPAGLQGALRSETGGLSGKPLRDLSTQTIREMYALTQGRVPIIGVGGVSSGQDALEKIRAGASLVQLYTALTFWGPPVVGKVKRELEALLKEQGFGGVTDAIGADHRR
Sequence of pbDHODH (A0A509AEH5 1-517): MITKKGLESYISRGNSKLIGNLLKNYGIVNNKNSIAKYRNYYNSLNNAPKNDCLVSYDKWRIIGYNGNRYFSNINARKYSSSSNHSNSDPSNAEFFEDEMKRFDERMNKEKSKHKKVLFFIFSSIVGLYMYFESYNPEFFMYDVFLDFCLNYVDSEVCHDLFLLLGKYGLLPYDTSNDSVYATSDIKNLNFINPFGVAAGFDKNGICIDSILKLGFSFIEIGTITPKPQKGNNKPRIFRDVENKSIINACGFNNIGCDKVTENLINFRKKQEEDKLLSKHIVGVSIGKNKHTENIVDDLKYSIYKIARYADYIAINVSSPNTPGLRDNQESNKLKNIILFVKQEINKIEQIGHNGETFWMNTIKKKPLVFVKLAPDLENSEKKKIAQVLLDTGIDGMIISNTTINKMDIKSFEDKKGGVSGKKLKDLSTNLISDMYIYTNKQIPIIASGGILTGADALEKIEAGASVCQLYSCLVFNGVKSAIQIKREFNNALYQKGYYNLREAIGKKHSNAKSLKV

For `O=C(NC1CC1)c1ccc(N2CCSc3ccccc32)s1` [Compound 5, 5(2H-benzo[b][1,4]thiazin-4(3H)-yl)-N-cyclopropylthiophene-2-carboxamide], the IC50 (usually the point on the concentration scale where inhibition reaches its midpoint) with P. falciparum D10 came to 950 nM; on hsDHODH, 7900 ± 400 nM; with P. falciparum HB3 it was 910 nM; on pfDHODH [2] (DCIP assay, 18 μM CoQD, 100 μM DCIP, 20 nM enzyme, read-out: pfDHODH IC50), 250 ± 30 nM; with P. falciparum 3D7, 890 nM; against pbDHODH it was 380 ± 60 nM. For the same compound, the half-inhibitory concentration (IC50) was more than 10000 nM on scDHODH; 280 ± 10 nM against pvDHODH; 620 nM in the data set on P. falciparum Dd2; more than 10000 nM in data set [4] (Plasmodium falciparum, D10, read-out: D10-scDHODH IC50). Moreover, the CC50 at 96 h in data set [1] and in data set [5] was more than 62000 nM in each case. Also, the inhibition (usually the change of the read-out against control, counted positive when it falls) at 50 µM on pfDHODH [2] (50 μM inhibitor, 100 μM CoQD, 60 μM DCIP, read-out: % Inhibition of Product Formation Rate with 50 μM Inhibitor, CoQD) was determined as 97%; on pfDHODH [3], 23%. In addition, the “efficacy against D10-scDHODH strain compared to D10 parent strain” value in [4] (dose-effect curves, FIG. 5) is given as “significantly reduced”.

For the origin of these results see patent US8703811B2, “Small molecule inhibitors of Plasmodium falciparum dihydroorotate dehydrogenase” (Genzyme Corporation, priority 2008, dated 2014).
